Experimental findings from paper PMC12022909, “A Multicomponent Reaction-Based Platform Opens New Avenues in Aryl Hydrocarbon Receptor Modulation” (ACS Central Science, 2025) are described below.

This test has as its target T1, AhR (Homo sapiens, UniProt P35869).
T1 construct: Degradation of endogenous AhR was further confirmed via Western blotting and global proteomics measurements in cells treated with 12b; host or cells: MCF7
T1 sequence (P35869 11-848): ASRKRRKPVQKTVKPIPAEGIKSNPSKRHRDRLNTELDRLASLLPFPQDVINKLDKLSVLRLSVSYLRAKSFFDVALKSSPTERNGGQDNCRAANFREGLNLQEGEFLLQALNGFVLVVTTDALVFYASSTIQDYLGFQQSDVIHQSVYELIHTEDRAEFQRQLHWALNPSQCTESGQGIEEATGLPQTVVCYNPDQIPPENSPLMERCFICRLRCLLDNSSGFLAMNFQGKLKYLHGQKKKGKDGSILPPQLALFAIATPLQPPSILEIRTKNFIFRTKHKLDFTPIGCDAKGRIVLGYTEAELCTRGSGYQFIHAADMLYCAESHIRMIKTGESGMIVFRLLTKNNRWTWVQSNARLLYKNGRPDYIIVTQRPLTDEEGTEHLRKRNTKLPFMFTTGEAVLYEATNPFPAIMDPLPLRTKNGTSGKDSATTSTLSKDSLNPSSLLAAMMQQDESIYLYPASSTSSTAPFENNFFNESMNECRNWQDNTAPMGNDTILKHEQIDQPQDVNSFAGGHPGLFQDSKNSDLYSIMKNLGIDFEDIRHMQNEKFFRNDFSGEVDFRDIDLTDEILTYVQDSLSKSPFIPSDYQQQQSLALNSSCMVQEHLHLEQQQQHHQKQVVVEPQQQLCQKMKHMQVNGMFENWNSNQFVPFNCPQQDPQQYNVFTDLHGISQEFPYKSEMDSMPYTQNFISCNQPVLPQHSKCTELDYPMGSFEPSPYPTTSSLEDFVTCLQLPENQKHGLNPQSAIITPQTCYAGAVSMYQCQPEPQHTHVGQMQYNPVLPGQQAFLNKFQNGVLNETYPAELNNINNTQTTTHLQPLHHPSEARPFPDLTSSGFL
As to the kind of experiment: Western blot of AhR in MCF7 cells. Type of test: cell-based. To be noted: 10 µM, 5 h. As to the method:
Figure S30. Agonists induce degradation of AhR.
12b, 12c, and 12d at a concentration of 10 µM for 5h. The numbers on the Blot indicate the signal intensities of the bands relative to the Tubulin bands, normalized to DMSO treatment as quantified with Empiria Studio. […]
Cell culture and treatment […]
MCF7 cells were purchased from ATCC and grown in DMEM with 10% FCS and 1% penicillin/ streptomycin. […]
All cells were cultivated at 37 °C in a humidified atmosphere containing 5% CO 2.
Tapinarof (MedChemExpress, Monmouth Junction, NJ), benzo[a]pyrene (Sigma-Aldrich, Taufkirchen, Germany), TCDD (Amchro, Hattersheim am Main, Germany) and all compounds synthesized in this study were dissolved in dimethyl sulfoxide (DMSO; Roth). […]
Quantitative real-time PCR […]
• CYP1A1: […] (forward (5'>3')); […] (reverse (5'>3')).
• CYP1B1: […] (forward (5'>3')); […] (reverse (5'>3')).
• CCL26: […] (forward (5'>3')); […] (reverse (5'>3')).
• IL-19: […] (forward (5'>3')); […] (reverse (5'>3')).
• CXCL1: […] (forward (5'>3')); […] (reverse (5'>3')).
• β-actin: […] (forward (5'>3')); […] (reverse (5'>3')). […]
The assay was carried out as described earlier. Luciferase activity was normalized to protein content.
SDS-PAGE/Western blot analysis
Cells were lysed in RIPA buffer on ice and subsequently centrifuged for 15 min at 4 °C at maximum speed. Protein samples were separated by 10% and 12% SDS -polyacrylamide gel electrophoresis and blotted onto PVDF (GE Healthcare, Freiburg, Germany) or Nitrocellulose (BioRad #17 04158) membranes. Blots were blocked with 5% skim milk or bovine serum albumin in TBS -Tween-20 (0.1%) for or Intercept® (TBS) Blocking Buffer (LI -COR Biosciences) 1 h at room temperature and subsequently incubated overnight at 4 °C with primary antibodies. Blots were washed and then incubated for 1 h with a 1:5000 dilution of HRP -conjugated secondary antibodies in 5% bovine serum albumin in TBS -Tween-20 (0.1%) or anti-Mouse (Licor, IRDye® 680RD Goat anti -Mouse IgG, 1:10k dilution) or anti-Rabbit secondary antibody (Licor, IRDye® Goat anti -Rabbit IgG, 1:10k dilution) at room temperature. Bands were visualized using WesternBright ECL HRP substrate (Advansta, San Jose, CA) and a C -DiGit Western Blot Scanner (LI -COR Biotechnology, Lincoln, NE) or a Licor Odyssey CLx imager. Primary antibodies used in this study are as follows. AhR (Cat.No. 83200; Cell Signaling Technology, Leiden, The Netherlands). AIP (Cat.No. sc-59730; Santa Cruz Biotechnology, Dallas, TX). Cul4B (Cat.No. abx004735; Abbexa, Houston, TX). GAPDH (Cat.No. 2118; Cell Signaling Technology). Vinculin (Cat.No. 13901, Cell Signaling Technology). α - Tubulin (Abcam, ab7291, 1:10k dilution).
HaCaT-EV and HaCaT-shAhR cells were treated with either vehicle (DMSO) or 10 µM 12d for 0.5 h and 1 h. […]
(In general: A western blot detects proteins with antibodies after separation by electrophoresis.)

SMILES strings stand for the structures.

`Cc1[nH]c2ccccc2c1-c1c2[nH]c3ccccc3c2cc2[nH]c3ccccc3c12` [5e]: the AhR receptor proteolysis entry was “induced receptor proteolysis”.
